In the data set the test system is rodent carcinogenicity bioassays, tumor incidence. As to the kind of experiment: CCRIS carcinogenicity studies. An outline of the steps:
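Archive of carcinogenicity, mutagenicity, tumor promotion and tumor inhibition results drawn from journals, NCI reports and other sources, expert-reviewed; covers 1985-2011 and is no longer updated.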

Results on five compounds are retold here after PubChem BioAssay AID1259411 (Chemical Carcinogenesis Research Information System (CCRIS), 2018).

SMILES strings stand for the structures. Activity calls are given as the source filed them. How the calls were made is not given here.

On to `Nc1ccc(N=Nc2ccccc2)c(N)n1`, for which the carcinogen call is “active; positive” (Species: MOUSE, Strain/Sex: B6C3F1/FEMALE, Route: ORAL, Dose: 0, 600, 1200 PPM IN DIET, Dose: 0, 600, 1200 PPM IN DIET, Tumor Site: Type of Lesion: LIVER: HEPATOCELLULAR ADENOMA OR HEPATOCELLULAR CARCINOMA); “active; positive” (Species: MOUSE, Strain/Sex: B6C3F1/MALE, Route: ORAL, Dose: 0, 600, 1200 PPM IN DIET, Dose: 0, 600, 1200 PPM IN DIET); “active; positive” (Species: RAT, Strain/Sex: F344/FEMALE, Route: ORAL, Dose: 0, 3700, 7500 PPM IN DIET, Dose: 0, 3700, 7500 PPM IN DIET, Tumor Site: Type of Lesion: COLON: ADENOCARCINOMA (NOS)); “active; positive” (Species: RAT, Strain/Sex: F344/MALE, Route: ORAL, Dose: 0, 3700, 7500 PPM IN DIET, Dose: 0, 3700, 7500 PPM IN DIET, Tumor Site: Type of Lesion: INTESTINES (COLON OR RECTUM): ADENOCARCINOMA (NOS), ADENOCARCINOMA (NOS) OR ADENOMA (NOS)).
For the compound `O=[N+]([O-])c1cc([N+](=O)[O-])c2ccc3cccc4ccc1c2c43`, the carcinogen call is “active; positive” (Species: RAT, Strain/Sex: STRAIN CD/FEMALE, Route: INTRAGASTRIC, Dose: 10 UMOL IN DMSO 3/WK FOR 4 WK (TOTAL DOSE: 16 UMOL/RAT) (STUDY DURATION: 78 WK), Tumor Site: Type of Lesion: ADRENAL GLAND: CORTICAL ADENOMA, PITUITARY GLAND: CARCINOMA); “active; positive” (Species: RAT, Strain/Sex: STRAIN CD/FEMALE, Route: INTRAPERITONEAL, Dose: 0, 10 UMOL IN DMSO 3/WK FOR 4 WK (TOTAL DOSE: 16 UMOL/RAT) (STUDY DURATION: 78 WK), Tumor Site: Type of Lesion: MAMMARY GLAND: ADENOCARCINOMA, FIBROADENOMA, ADENOMA); “active; positive” (Species: RAT, Strain/Sex: STRAIN-CD/FEMALE, Route: SUBCUTANEOUS, Dose: 0, 6.3 UMOL (TOTAL DOSE) ADMINISTERED OVER 8 WK BEGINNING ON DAY OF BIRTH (STUDY DURATION: 67 WK), Tumor Site: Type of Lesion: INTEGUMENTARY SYSTEM: MALIGNANT FIBROUS HISTIOCYTOMA).
Take `CCCCN(N=O)C(N)=O`: the carcinogen call is “active; positive” (Species: MOUSE (NEWBORN), Strain/Sex: CD-1/MALE,FEMALE, Route: SUBCUTANEOUS, Dose: 333 MG/KG IN 1% GEL SOLN WITHIN 24 HR OF BIRTH, Tumor Site: Type of Lesion: LUNG: ADENOMA, ADENOCARCINOMA, LIVER: ADENOMA); “active; positive” (Species: RAT, Strain/Sex: F344/FEMALE, Route: GAVAGE, Dose: 0, 15 MG/ML (TOTAL DOSE 0; 1.7 MMOL) IN 2 ML ETHYL ACETATE AND CORN OIL (1:2) 2/WK FOR 40 WK (STUDY DURATION: LIFETIME), Dose: 0, 15 MG/ML (TOTAL DOSE 0; 1.7 MMOL) IN 2 ML ETHYL ACETATE AND CORN OIL (1:2) 2/WK FOR 40 WK (STUDY DURATION: LIFETIME), Tumor Site: Type of Lesion: FORESTOMACH: SQUAMOUS CELL CARCINOMA, LUNG: TUMOR, MAMMARY GLAND: TUMOR, UTERUS: TUMOR, Tumor Site: Type of Lesion: FORESTOMACH: SQUAMOUS CELL CARCINOMA, LUNG: TUMOR, MAMMARY GLAND: TUMOR, UTERUS: TUMOR); “active; positive” (Species: RAT, Strain/Sex: F344/FEMALE, Route: GAVAGE, Dose: 0, 15 MG/ML IN 0.2 ML ETHYL ACETATE AND CORN OIL 2/WK FOR 40 WK (STUDY DURATION: LIFESPAN), Tumor Site: Type of Lesion: FORESTOMACH: TUMOR, LUNG: TUMOR, MAMMARY GLAND: TUMOR, UTERUS: TUMOR, Tumor Site: Type of Lesion: FORESTOMACH: TUMOR, LUNG: TUMOR, MAMMARY GLAND: TUMOR, UTERUS: TUMOR); “active; positive” (Species: RAT, Strain/Sex: F344/MALE, Route: GAVAGE, Dose: 0, 15 MG/ML (TOTAL DOSE 0; 1.7 MMOL) IN 2 ML ETHYL ACETATE AND CORN OIL (1:2) 2/WK FOR 40 WK (STUDY DURATION: LIFETIME), Dose: 0, 15 MG/ML (TOTAL DOSE 0; 1.7 MMOL) IN 2 ML ETHYL ACETATE AND CORN OIL (1:2) 2/WK FOR 40 WK (STUDY DURATION: LIFETIME), Tumor Site: Type of Lesion: FORESTOMACH: SQUAMOUS CELL CARCINOMA, LUNG: TUMOR); “active; positive” (Species: RAT, Strain/Sex: F344/MALE, Route: GAVAGE, Dose: 0, 15 MG/ML IN 0.2 ML ETHYL ACETATE AND CORN OIL 2/WK FOR 40 WK (STUDY DURATION: LIFESPAN), Tumor Site: Type of Lesion: FORESTOMACH: TUMOR, LUNG: TUMOR).
As for `Nc1cc(S(=O)(=O)[O-])cc2c1C(=O)/C(=N\Nc1ccc(-c3ccc(N/N=C4\C(=O)c5c(N)cc(S(=O)(=O)[O-])cc5C=C4S(=O)(=O)[O-])c(O)c3)cc1O)C(S(=O)(=O)[O-])=C2.[Cu].[Cu].[Na+].[Na+].[Na+].[Na+]`, the carcinogen call (Species: MOUSE, Strain/Sex: B6C3F1/FEMALE, Route: ORAL, Dose: 0, 1000, 3000, 10000 PPM IN DIET FOR 103 WK (STUDY DURATION: 106 WK), Dose: 0, 1000, 3000, 10000 PPM IN DIET FOR 103 WK (STUDY DURATION: 106 WK), Tumor Site: Type of Lesion: LIVER: HEPATOCELLULAR ADENOMA, HEPATOCELLULAR CARCINOMA) was “active; positive”; the carcinogen call (Species: MOUSE, Strain/Sex: B6C3F1/MALE, Route: ORAL, Dose: 0, 1000, 3000, 10000 PPM IN DIET FOR 103 WK (STUDY DURATION: 106 WK), Dose: 0, 1000, 3000, 10000 PPM IN DIET FOR 103 WK (STUDY DURATION: 106 WK), Tumor Site: Type of Lesion: LIVER: HEPATOCELLULAR ADENOMA, HEPATOCELLULAR CARCINOMA) is “active; positive”; the carcinogen call (Species: RAT, Strain/Sex: F344/FEMALE, Route: ORAL, Dose: 0, 1000, 3000, 10000 PPM IN DIET FOR 103 WK (STUDY DURATION: 105 WK), Dose: 0, 1000, 3000, 10000 PPM IN DIET FOR 103 WK (STUDY DURATION: 105 WK)) is “inactive; negative”; the carcinogen call (Species: RAT, Strain/Sex: F344/MALE, Route: ORAL, Dose: 0, 1000, 3000, 10000 PPM IN DIET FOR 103 WK (STUDY DURATION: 105 WK), Dose: 0, 1000, 3000, 10000 PPM IN DIET FOR 103 WK (STUDY DURATION: 105 WK), Tumor Site: Type of Lesion: PHARYNX: SQUAMOUS CELL PAPILLOMA OR SQUAMOUS CELL CARCINOMA) is “active; positive”.
Turning to `CC(CCC(=O)N(CC(=O)O)N=O)C1CCC2C3C(O)CC4C[C@H](O)CCC4(C)C3C[C@H](O)C12C` (some centres not stated), the carcinogen call (Species: RAT, Strain/Sex: F344/MALE, Route: GAVAGE, Dose: 0, 10 MG IN 50 µL DMSO 5 D/WK FOR 6 WK (STUDY DURATION: 108 WK), Tumor Site: Type of Lesion: LIVER: CARCINOMA) is “active; positive”.
